Assays:
[1] = test system: Human IFN-γ; assay: IFN-γ release from stimulated PBMCs, ELISA; type: cell-based; details: LPS 100 ng/mL, 18 hrs
Protocol: (§1) Fresh human blood from healthy volunteer was collected in anticoagulant (5 mM) ethylene diamine tetra acetic acid (EDTA) containing tubes. The growth medium used was RPMI-1640 medium (with 3% FBS) and incubated at 37° C. for 60 mins in a 5% CO2 incubator with vehicle used as 1% DMSO. The cell viability was checked at various time points using Alamar blue and fluorescence readings were taken at excitation of 544 nm and emission of 590 nm.
(§2) PBMCs were stimulated with different stimulators as follows: • a. Cells were exposed to stimulator LPS at 100 ng/mL for 18 hrs to stimulate TNF-α, IL-6, IFN-γ, IL10, IL-1β • b. Cells were exposed to stimulator IFN-γ+LPS at 100 ng/mL+1 μg/mL for 18 hrs to stimulate IL-12 • c. Cells were exposed to stimulator PMA+Ionomycin at 50 ng/mL+1 μg/mL for 18 hrs to stimulate IL-23, IL-22, IL-17A, IL-17F
(§3) After 18 hrs supernatants were collected and centrifuged to remove any cell debris and aliquots were used for ELISA.

[2] = target: PDE2A (Homo sapiens, UniProt O00408); assay: Fluorescence polarization assay PDE2A; type: biochemical; details: substrate cGMP
Protocol: (§4) An experiment to check inhibition of various subtypes of the target Phosphodiesterase (PDE) enzyme in in-vitro assay was performed. […] PDE1A, PDE2A, PDE4A, PDE4B, PDE4C, PDE4D, PDE5A, PDE7A, PDE9A, PDE10A.

[3] = test system: Human IL-10; assay: IL-10 release from stimulated PBMCs, ELISA; type: cell-based; details: LPS 100 ng/mL, 18 hrs
Protocol: as §1, §2, §3

[4] = test system: HaCaT cells; assay: Cell viability of HaCaT cells, Alamar blue; type: cell-based, human
In short: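 HaCaT keratinocytes grown in DMEM with 10% FBS at 37° C, 5% CO2, with 1% DMSO as vehicle. Viability followed at several time points by Alamar blue fluorescence, excitation 544 nm, emission 590 nm.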

[5] = test system: Human IL-17A; assay: IL-17A release from stimulated PBMCs, ELISA; type: cell-based; details: PMA+Ionomycin, 18 hrs
Protocol: as §1, §2, §3

[6] = test system: Human IL-1β; assay: IL-1β release from stimulated PBMCs, ELISA; type: cell-based; details: LPS 100 ng/mL, 18 hrs
Protocol: as §1, §2, §3

[7] = test system: human PBMCs; assay: Cell viability of human PBMCs, Alamar blue; type: cell-based
Protocol: as §1

[8] = test system: Human IL-17F; assay: IL-17F release from stimulated PBMCs, ELISA; type: cell-based; details: PMA+Ionomycin, 18 hrs
Protocol: as §1, §2, §3

[9] = test system: Human IL-22; assay: IL-22 release from stimulated PBMCs, ELISA; type: cell-based; details: PMA+Ionomycin, 18 hrs
Protocol: as §1, §2, §3

[10] = test system: TNF-α; assay: TNF-α release from stimulated HaCaT cells, ELISA; type: cell-based, human; details: IFN-γ 50 ng/mL, 48 hrs
In short: (§5)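 HaCaT keratinocytes in DMEM/10% FBS at 37 °C, 5% CO2, vehicle 1% DMSO, stimulated with IFN-γ 50 ng/mL for 48 hrs to induce TNF-α and IL-6. Cleared supernatants analysed by ELISA; viability checked by Alamar blue (ex 544/em 590 nm).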

[11] = target: PDE1A (Homo sapiens, UniProt P54750); assay: Fluorescence polarization assay PDE1A; type: biochemical; details: substrate cGMP, Ca-CaM
Protocol: as §4

[12] = test system: Human IL-12; assay: IL-12 release from stimulated PBMCs, ELISA; type: cell-based; details: IFN-γ+LPS, 18 hrs
Protocol: as §1, §2, §3

[13] = target: PDE4B (Homo sapiens, UniProt Q07343); assay: Fluorescence polarization assay PDE4B; type: biochemical; details: substrate cAMP
Protocol: as §4

[14] = test system: Human IL-6; assay: IL-6 release from stimulated PBMCs, ELISA; type: cell-based; details: LPS 100 ng/mL, 18 hrs
Protocol: as §1, §2, §3

[15] = test system: Human TNF-α; assay: TNF-α release from stimulated PBMCs, ELISA; type: cell-based; details: LPS 100 ng/mL, 18 hrs
Protocol: as §1, §2, §3

[16] = test system: IL-6; assay: IL-6 release from stimulated HaCaT cells, ELISA; type: cell-based, human; details: IFN-γ 50 ng/mL, 48 hrs
In short: as §5

PDE2A, sequence (O00408 whole entry, species assumed): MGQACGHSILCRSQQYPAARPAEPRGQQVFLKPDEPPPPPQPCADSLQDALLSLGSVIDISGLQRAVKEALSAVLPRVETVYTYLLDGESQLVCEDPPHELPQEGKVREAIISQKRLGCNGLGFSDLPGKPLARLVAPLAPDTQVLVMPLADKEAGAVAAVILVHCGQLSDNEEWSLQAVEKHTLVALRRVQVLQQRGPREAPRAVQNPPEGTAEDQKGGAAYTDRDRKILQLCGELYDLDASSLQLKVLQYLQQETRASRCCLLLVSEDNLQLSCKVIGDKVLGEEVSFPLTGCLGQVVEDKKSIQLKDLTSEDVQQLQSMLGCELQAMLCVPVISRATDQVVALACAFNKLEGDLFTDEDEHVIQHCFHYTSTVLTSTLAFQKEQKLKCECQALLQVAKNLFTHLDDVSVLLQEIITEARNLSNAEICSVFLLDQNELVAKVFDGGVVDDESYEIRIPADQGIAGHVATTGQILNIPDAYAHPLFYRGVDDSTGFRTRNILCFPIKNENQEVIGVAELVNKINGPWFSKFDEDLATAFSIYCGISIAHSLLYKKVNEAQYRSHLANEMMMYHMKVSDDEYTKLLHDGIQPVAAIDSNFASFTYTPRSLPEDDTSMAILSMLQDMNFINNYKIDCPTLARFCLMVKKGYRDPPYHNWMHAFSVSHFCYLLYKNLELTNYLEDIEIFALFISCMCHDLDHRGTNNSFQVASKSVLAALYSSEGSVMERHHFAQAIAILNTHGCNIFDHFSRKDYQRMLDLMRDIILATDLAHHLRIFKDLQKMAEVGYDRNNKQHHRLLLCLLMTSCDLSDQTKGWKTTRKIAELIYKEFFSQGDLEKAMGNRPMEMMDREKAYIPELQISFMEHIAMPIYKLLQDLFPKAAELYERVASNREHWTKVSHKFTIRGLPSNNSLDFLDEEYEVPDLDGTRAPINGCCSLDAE
PDE1A, sequence (P54750 whole entry, species assumed): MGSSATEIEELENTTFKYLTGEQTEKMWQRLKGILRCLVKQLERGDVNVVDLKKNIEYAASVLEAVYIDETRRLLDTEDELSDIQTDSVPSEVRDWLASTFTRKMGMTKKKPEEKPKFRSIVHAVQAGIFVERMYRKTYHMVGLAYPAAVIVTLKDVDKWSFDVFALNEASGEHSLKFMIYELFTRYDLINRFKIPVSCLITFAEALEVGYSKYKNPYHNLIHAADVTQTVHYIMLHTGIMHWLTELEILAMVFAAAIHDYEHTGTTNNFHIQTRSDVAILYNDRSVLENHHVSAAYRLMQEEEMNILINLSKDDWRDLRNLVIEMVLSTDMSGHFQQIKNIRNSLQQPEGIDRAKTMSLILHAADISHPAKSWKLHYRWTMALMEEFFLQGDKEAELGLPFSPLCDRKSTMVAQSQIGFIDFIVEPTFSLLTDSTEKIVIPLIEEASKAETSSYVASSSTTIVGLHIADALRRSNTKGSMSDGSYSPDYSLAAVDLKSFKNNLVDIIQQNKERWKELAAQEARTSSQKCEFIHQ
PDE4B, sequence (Q07343 whole entry, species assumed): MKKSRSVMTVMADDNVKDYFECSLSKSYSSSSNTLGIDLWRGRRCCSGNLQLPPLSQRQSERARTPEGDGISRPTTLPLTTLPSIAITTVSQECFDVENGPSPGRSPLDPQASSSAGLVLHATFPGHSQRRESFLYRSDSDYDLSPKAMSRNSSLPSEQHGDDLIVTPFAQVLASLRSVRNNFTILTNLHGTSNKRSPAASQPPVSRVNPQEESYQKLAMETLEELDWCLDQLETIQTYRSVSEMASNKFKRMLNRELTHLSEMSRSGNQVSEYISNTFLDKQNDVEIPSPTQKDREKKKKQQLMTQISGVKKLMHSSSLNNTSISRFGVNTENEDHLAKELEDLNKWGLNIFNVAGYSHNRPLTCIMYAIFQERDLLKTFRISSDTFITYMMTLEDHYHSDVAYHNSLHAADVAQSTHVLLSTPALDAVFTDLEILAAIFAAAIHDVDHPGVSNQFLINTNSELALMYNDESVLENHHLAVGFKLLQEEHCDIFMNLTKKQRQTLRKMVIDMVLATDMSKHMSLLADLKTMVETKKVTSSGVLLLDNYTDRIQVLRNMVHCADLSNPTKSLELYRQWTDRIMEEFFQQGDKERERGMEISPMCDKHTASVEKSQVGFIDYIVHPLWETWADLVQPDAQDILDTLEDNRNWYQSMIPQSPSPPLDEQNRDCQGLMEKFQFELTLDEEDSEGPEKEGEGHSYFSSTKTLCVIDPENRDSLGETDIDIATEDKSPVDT

## O=C(Nc1ncc([N+](=O)[O-])s1)c1ccccc1O [Tizoxanide]
[1]; 1 μM
  Human IFN-γ concentration: 204 pg/mL
[1]; 10 μM
  Human IFN-γ concentration: 111 pg/mL
[1]; 25 μM
  Human IFN-γ concentration: 139 pg/mL
[1]; 50 μM
  Human IFN-γ concentration: 191 pg/mL
[2]
  IC50: 12 µM
[3]; 1 μM
  Human IL-10 concentration: 1591 pg/mL
[3]; 10 μM
  Human IL-10 concentration: 493 pg/mL
[3]; 25 μM
  Human IL-10 concentration: 76 pg/mL
[3]; 50 μM
  Human IL-10 concentration: 42 pg/mL
[4]; 0.1 μM, 24 hrs
  % Viability (±S.E.M.): 76 ± 6%
[4]; 0.1 μM, 48 hrs
  % Viability (±S.E.M.): 114 ± 2%
[4]; 0.1 μM, 72 hrs
  % Viability (±S.E.M.): 112 ± 6%
[4]; 1 μM, 24 hrs
  % Viability (±S.E.M.): 74 ± 6%
[4]; 1 μM, 48 hrs
  % Viability (±S.E.M.): 91 ± 5%
[4]; 1 μM, 72 hrs
  % Viability (±S.E.M.): 91 ± 2%
[4]; 10 μM, 24 hrs
  % Viability (±S.E.M.): 34 ± 1%
[4]; 10 μM, 48 hrs
  % Viability (±S.E.M.): 35 ± 0%
[4]; 10 μM, 72 hrs
  % Viability (±S.E.M.): 43 ± 1%
[4]; 50 μM, 24 hrs
  % Viability (±S.E.M.): 24 ± 1%
[4]; 50 μM, 48 hrs
  % Viability (±S.E.M.): 20 ± 0%
[4]; 50 μM, 72 hrs
  % Viability (±S.E.M.): 25 ± 0%
[4]; 100 μM, 24 hrs
  % Viability (±S.E.M.): 20 ± 0%
[4]; 100 μM, 48 hrs
  % Viability (±S.E.M.): 13 ± 0%
[4]; 100 μM, 72 hrs
  % Viability (±S.E.M.): 20 ± 0%
[4]; HaCaT cells, maximum concentration for stimulation study
  Concentration which exhibited cell viability of 70%: 1 µM
[5]; 1 μM
  Human IL-17A concentration: 39 pg/mL
[5]; 10 μM
  Human IL-17A concentration: 0 pg/mL
[5]; 25 μM
  Human IL-17A concentration: 0 pg/mL
[5]; 50 μM
  Human IL-17A concentration: 0 pg/mL
[6]; 1 μM
  Human IL-1β concentration: 4577 pg/mL
[6]; 10 μM
  Human IL-1β concentration: 4118 pg/mL
[6]; 25 μM
  Human IL-1β concentration: 4168 pg/mL
[6]; 50 μM
  Human IL-1β concentration: 2522 pg/mL
[7]; 0.01 μM, 24 hrs
  % Viability (±S.E.M.): 91 ± 3%
[7]; 0.01 μM, 48 hrs
  % Viability (±S.E.M.): 96 ± 3%
[7]; 0.01 μM, 72 hrs
  % Viability (±S.E.M.): 115 ± 1%
[7]; 1 μM, 24 hrs
  % Viability (±S.E.M.): 84 ± 2%
[7]; 1 μM, 48 hrs
  % Viability (±S.E.M.): 101 ± 4%
[7]; 1 μM, 72 hrs
  % Viability (±S.E.M.): 102 ± 3%
[7]; 100 μM, 24 hrs
  % Viability (±S.E.M.): 91 ± 5%
[7]; 100 μM, 48 hrs
  % Viability (±S.E.M.): 64 ± 2%
[7]; 100 μM, 72 hrs
  % Viability (±S.E.M.): 25 ± 2%
[7]; PBMCs, maximum concentration for stimulation study
  Concentration which exhibited cell viability of 70%: 50 µM
[8]; 1 μM
  Human IL-17F concentration: 151 pg/mL
[8]; 10 μM
  Human IL-17F concentration: 0 pg/mL
[8]; 25 μM
  Human IL-17F concentration: 0 pg/mL
[8]; 50 μM
  Human IL-17F concentration: 0 pg/mL
[9]; 1 μM
  Human IL-22 concentration: 7858 pg/mL
[9]; 10 μM
  Human IL-22 concentration: 1189 pg/mL
[9]; 25 μM
  Human IL-22 concentration: 280 pg/mL
[9]; 50 μM
  Human IL-22 concentration: 0 pg/mL
[10]; 0.1 μM
  TNF-α Conc.: 2.9 ± 0.2 pg/mL
[10]; 0.5 μM
  TNF-α Conc.: 3.2 ± 0.1 pg/mL
[10]; 1 μM
  TNF-α Conc.: 2.3 ± 0.5 pg/mL
[11]
  IC50: 96.1 µM
[12]; 1 μM
  Human IL-12 concentration: 4715 pg/mL
[12]; 10 μM
  Human IL-12 concentration: 1401 pg/mL
[12]; 25 μM
  Human IL-12 concentration: 381 pg/mL
[12]; 50 μM
  Human IL-12 concentration: 101 pg/mL
[13]
  IC50: > 500 µM
[14]; 1 μM
  Human IL-6 concentration: 6122 pg/mL
[14]; 10 μM
  Human IL-6 concentration: 5225 pg/mL
[14]; 25 μM
  Human IL-6 concentration: 3428 pg/mL
[14]; 50 μM
  Human IL-6 concentration: 2086 pg/mL
[15]; 1 μM
  Human TNF-α concentration: 5351 pg/mL
[15]; 10 μM
  Human TNF-α concentration: 3244 pg/mL
[15]; 25 μM
  Human TNF-α concentration: 3489 pg/mL
[15]; 50 μM
  Human TNF-α concentration: 2440 pg/mL
[16]; 0.1 μM
  IL-6 Conc.: 87 ± 2 pg/mL
[16]; 0.5 μM
  IL-6 Conc.: 80 ± 2 pg/mL
[16]; 1 μM
  IL-6 Conc.: 78 ± 6 pg/mL

From patent US11786492B2, “Therapeutic agent for phosphodiesterase inhibition and its related disorders” (Novalead Pharma Inc, priority 2017, dated 2023)
